Laboratory results from ChEMBL document CHEMBL3885861, “Open TG-GATES”.

Species on record: Rattus norvegicus
Assay: Open TG-GATES - Regimen: Daily Repeat
Assay type: toxicity, organism-based, Sprague-Dawley
Design: regimen Daily Repeat, gender Male, age 6 weeks
Conditions: in vivo, po, 300 mg/kg, route gavage, dose level High; for APTT / Bas / Eos / Fbg / Hb / Ht / Lym / MCH / MCHC / MCV / Mono / Neu / PT / Plat / RBC / Ret / WBC: tissue Blood; for KIDNEY_L / KIDNEY_R / KIDNEY_TOTAL: tissue Kidney; for LIVER: tissue Liver; for A/G / ALP / ALT / AST / BUN / CRE / Ca / Cl / DBIL / GLC / IP / K / LDH / Na / PL / RALB / TBIL / TC / TG / TP / gamma-GTP: tissue Plasma

SMILES: C[C@]12CCC(=O)C=C1CC[C@@H]1[C@@H]2CC[C@@]2(C)[C@H]1CC[C@]2(C)O [METHYLTESTOSTERONE]
- TERMINAL_BW (72 h, time 3 day): 233.2 g
- APTT (72 h, time 3 day): 15.7 s
- Bas (72 h, time 3 day): 0%
- Eos (72 h, time 3 day): 1%
- Fbg (72 h, time 3 day): 295.4 mg/dL
- Hb (72 h, time 3 day): 13.8 g/dL
- Ht (72 h, time 3 day): 39.9%
- Lym (72 h, time 3 day): 74.8%
- MCH (72 h, time 3 day): 21.8 pg
- MCHC (72 h, time 3 day): 34.6%
- MCV (72 h, time 3 day): 63.2 fL
- Mono (72 h, time 3 day): 2.8%
- Neu (72 h, time 3 day): 21%
- PT (72 h, time 3 day): 13.4 s
- Plat (72 h, time 3 day): 115.4 x10_4/uL
- RBC (72 h, time 3 day): 630.6 x10_4/ul
- Ret (72 h, time 3 day): 6.1%
- WBC (72 h, time 3 day): 71.4 x10_2/uL
- KIDNEY_L (72 h, time 3 day): 1.1 g
- KIDNEY_R (72 h, time 3 day): 1.1 g
- KIDNEY_TOTAL (72 h, time 3 day): 2.2 g
- LIVER (72 h, time 3 day): 12.3 g
- A/G (72 h, time 3 day): 0.9
- ALP (72 h, time 3 day): 1988.4 IU/L
- ALT (72 h, time 3 day): 52.4 IU/L
- AST (72 h, time 3 day): 72 IU/L
- BUN (72 h, time 3 day): 14.4 mg/dL
- CRE (72 h, time 3 day): 0.2 mg/dL
- Ca (72 h, time 3 day): 11 mg/dL
- Cl (72 h, time 3 day): 106.2 meq/L
- DBIL (72 h, time 3 day): 0.028 mg/dL
- GLC (72 h, time 3 day): 179 mg/dL
- IP (72 h, time 3 day): 8.4 mg/dL
- K (72 h, time 3 day): 4.2 meq/L
- LDH (72 h, time 3 day): 129.6 IU/L
- Na (72 h, time 3 day): 143.2 meq/L
- PL (72 h, time 3 day): 110.4 mg/dL
- RALB (72 h, time 3 day): 2.8 g/dL
- TBIL (72 h, time 3 day): 0.024 mg/dL
- TC (72 h, time 3 day): 37.8 mg/dL
- TG (72 h, time 3 day): 189 mg/dL
- TP (72 h, time 3 day): 5.8 g/dL
- gamma-GTP (72 h, time 3 day): 1.2 IU/L
- TERMINAL_BW ([…], time 7 day): 255 g
- TERMINAL_BW ([…], time 14 day): 299.6 g
- TERMINAL_BW ([…], time 28 day): 358.4 g
- APTT ([…], time 7 day): 19.5 s
- Bas ([…], time 7 day): 0%
- Eos ([…], time 7 day): 0.2%
- Fbg ([…], time 7 day): 345.8 mg/dL
- Hb ([…], time 7 day): 14 g/dL
- Ht ([…], time 7 day): 40.4%
- Lym ([…], time 7 day): 80%
- MCH ([…], time 7 day): 21.6 pg
- MCHC ([…], time 7 day): 34.6%
- MCV ([…], time 7 day): 62.2 fL
- Mono ([…], time 7 day): 3.2%
- Neu ([…], time 7 day): 15.4%
- PT ([…], time 7 day): 13.3 s
- Plat ([…], time 7 day): 121 x10_4/uL
- RBC ([…], time 7 day): 650.2 x10_4/ul
- Ret ([…], time 7 day): 5.3%
- WBC ([…], time 7 day): 65.9 x10_2/uL
- APTT ([…], time 14 day): 22.8 s
- Bas ([…], time 14 day): 0%
- Eos ([…], time 14 day): 0%
- Fbg ([…], time 14 day): 327.8 mg/dL
- Hb ([…], time 14 day): 15.3 g/dL
- Ht ([…], time 14 day): 43.7%
- Lym ([…], time 14 day): 70.4%
- MCH ([…], time 14 day): 20.5 pg
- MCHC ([…], time 14 day): 34.9%
- MCV ([…], time 14 day): 58.8 fL
- Mono ([…], time 14 day): 3.4%
- Neu ([…], time 14 day): 25.2%
- PT ([…], time 14 day): 13.5 s
- Plat ([…], time 14 day): 118.5 x10_4/uL
- RBC ([…], time 14 day): 744.4 x10_4/ul
- Ret ([…], time 14 day): 3.2%
- WBC ([…], time 14 day): 93.6 x10_2/uL
- APTT ([…], time 28 day): 19.9 s
- Bas ([…], time 28 day): 0%
- Eos ([…], time 28 day): 1%
- Fbg ([…], time 28 day): 325.4 mg/dL
- Hb ([…], time 28 day): 15.8 g/dL
- Ht ([…], time 28 day): 44.3%
- Lym ([…], time 28 day): 77.8%
- MCH ([…], time 28 day): 19.3 pg
- MCHC ([…], time 28 day): 35.7%
- MCV ([…], time 28 day): 54.1 fL
- Mono ([…], time 28 day): 3.2%
- Neu ([…], time 28 day): 17.4%
- PT ([…], time 28 day): 13.6 s
- Plat ([…], time 28 day): 111.9 x10_4/uL
- RBC ([…], time 28 day): 819 x10_4/ul
- Ret ([…], time 28 day): 2.6%
- WBC ([…], time 28 day): 81.2 x10_2/uL
- KIDNEY_L ([…], time 7 day): 1.2 g
- KIDNEY_R ([…], time 7 day): 1.2 g
- KIDNEY_TOTAL ([…], time 7 day): 2.4 g
- KIDNEY_L ([…], time 14 day): 1.4 g
- KIDNEY_R ([…], time 14 day): 1.4 g
- KIDNEY_TOTAL ([…], time 14 day): 2.8 g
- KIDNEY_L ([…], time 28 day): 1.8 g
- KIDNEY_R ([…], time 28 day): 1.8 g
- KIDNEY_TOTAL ([…], time 28 day): 3.7 g
- LIVER ([…], time 7 day): 13.5 g
- LIVER ([…], time 14 day): 15.3 g
- LIVER ([…], time 28 day): 18.6 g
- A/G ([…], time 7 day): 0.9
- ALP ([…], time 7 day): 1693.8 IU/L
- ALT ([…], time 7 day): 44.4 IU/L
- AST ([…], time 7 day): 63.4 IU/L
- BUN ([…], time 7 day): 13.8 mg/dL
- CRE ([…], time 7 day): 0.2 mg/dL
- Ca ([…], time 7 day): 10.9 mg/dL
- Cl ([…], time 7 day): 105 meq/L
- DBIL ([…], time 7 day): 0.028 mg/dL
- GLC ([…], time 7 day): 182.4 mg/dL
- IP ([…], time 7 day): 7.6 mg/dL
- K ([…], time 7 day): 3.8 meq/L
- LDH ([…], time 7 day): 89.4 IU/L
- Na ([…], time 7 day): 143.4 meq/L
- PL ([…], time 7 day): 117.2 mg/dL
- RALB ([…], time 7 day): 2.9 g/dL
- TBIL ([…], time 7 day): 0.03 mg/dL
- TC ([…], time 7 day): 38.6 mg/dL
- TG ([…], time 7 day): 228.8 mg/dL
- TP ([…], time 7 day): 6.2 g/dL
- gamma-GTP ([…], time 7 day): 1 IU/L
- A/G ([…], time 14 day): 0.8
- ALP ([…], time 14 day): 1180 IU/L
- ALT ([…], time 14 day): 62 IU/L
- AST ([…], time 14 day): 69.8 IU/L
- BUN ([…], time 14 day): 13 mg/dL
- CRE ([…], time 14 day): 0.2 mg/dL
- Ca ([…], time 14 day): 10.4 mg/dL
- Cl ([…], time 14 day): 105 meq/L
- DBIL ([…], time 14 day): 0.022 mg/dL
- GLC ([…], time 14 day): 172.6 mg/dL
- IP ([…], time 14 day): 7.8 mg/dL
- K ([…], time 14 day): 3.9 meq/L
- LDH ([…], time 14 day): 128.8 IU/L
- Na ([…], time 14 day): 143 meq/L
- PL ([…], time 14 day): 139.2 mg/dL
- RALB ([…], time 14 day): 2.8 g/dL
- TBIL ([…], time 14 day): 0.03 mg/dL
- TC ([…], time 14 day): 44 mg/dL
- TG ([…], time 14 day): 191.2 mg/dL
- TP ([…], time 14 day): 6.2 g/dL
- gamma-GTP ([…], time 14 day): 1.8 IU/L
- A/G ([…], time 28 day): 0.8
- ALP ([…], time 28 day): 1072 IU/L
- ALT ([…], time 28 day): 49.8 IU/L
- AST ([…], time 28 day): 60.2 IU/L
- BUN ([…], time 28 day): 12.4 mg/dL
- CRE ([…], time 28 day): 0.2 mg/dL
- Ca ([…], time 28 day): 10.9 mg/dL
- Cl ([…], time 28 day): 101.6 meq/L
- DBIL ([…], time 28 day): 0.026 mg/dL
- GLC ([…], time 28 day): 172 mg/dL
- IP ([…], time 28 day): 6.5 mg/dL
- K ([…], time 28 day): 3.4 meq/L
- LDH ([…], time 28 day): 100 IU/L
- Na ([…], time 28 day): 144.2 meq/L
- PL ([…], time 28 day): 118.6 mg/dL
- RALB ([…], time 28 day): 2.9 g/dL
- TBIL ([…], time 28 day): 0.032 mg/dL
- TC ([…], time 28 day): 36.2 mg/dL
- TG ([…], time 28 day): 202.2 mg/dL
- TP ([…], time 28 day): 6.3 g/dL
- gamma-GTP ([…], time 28 day): 2.6 IU/L
